Experimental data taken from patent US10849960B2 (priority 2017, dated 2020).

What was measured:
Assay type in all cases: cell-based, human
OVCAR-5 cells = assay: Chemical inhibition of Jak signaling, cytotoxicity assay; settings: inhibitor 10 μM, 2 hours before, 20/4 and 200/40 ng/mL IFNs/IL4-PE, 3 days
Method: (§1) FIGS. 7A-7D: Chemical inhibition of Jak signaling. OVCAR-5 cells (FIGS. 7A-7B) or A2780 cells (FIGS. 7C-7D) were treated with either ruxolitinib or tofacitinib for 2 hours at a final concentration of 10 μm before different concentrations of IFNs, IL4-PE or the combination of each were added. Percent viability was measured after 3 days in culture.
(§2) Cell lines were seeded at 10^4 cells/well in a 96-well plate in 100 μL of media and incubated until adherence (4 hr, 37° C., 5% CO2). Serial dilutions of IL4-PE, IFN-α2a, or IFN-γ were added and incubated for three days. IFNs were diluted using serial dilutions in cRPMI to obtain a final concentration of 200 ng/mL of both IFN-α2a or IFN-γ. For ruxolitinib and tofacitinib studies, 10 μM (final concentration) was added to the plates and incubated at 37° C. for 2 hours before IFNs or IL4-PE was added. The media was then removed, and cell viability was determined by crystal violet dye uptake in fixed, live cells. Crystal violet is a triarylmethane dye that binds to ribose type molecules such as DNA in nuclei. The dye staining is directly proportional to the cell biomass. Dye absorbance was measured at 570 nm using a spectrophotometer.

A2780 cells = assay: as above; settings: inhibitor 10 μM, 2 hours before
Method: as §1, §2

STAT1 = assay: Western blot for phosphorylated STAT1; settings: OVCAR-5 and A2780 cell lines; 20 minutes
Method: FIGS. 6A-6B: Western blot analysis of IFN and IL4-PE STAT activation. (FIG. 6A) Western blots for phosphorylated STAT1 in OVCAR-5 and A2780 cells stimulated with IFNα2a, IFNγ, IL4-PE, or all three agents for 20 minutes at the highest concentrations from FIGS. 1A-1B (representative of three separate experiments). (FIG. 6B) Western blots for phosphorylated STAT6 in OVCAR-5 and A2780 cells stimulated with IFNα2a, IFN, IL4-PE, or all three agents for 20 minutes (representative of three separate experiments). P38 protein kinase was used as a loading control.
Cell pellets were snap-frozen and stored at −80° C. Pellets were thawed and lysed with MPER buffer supplemented with protease inhibitors. Cell lysates were centrifuged at 13,000 RPM at 4° C. for 20 minutes to clarify the lysate. The clarified lysate was removed and placed in a new vial. The protein concentration was measured using a NANODROP® Spectrophotometer (LIFE TECHNOLOGIES®, Wilmington, Del.). The lysate was mixed with reducing loading buffer (LIFE TECHNOLOGIES®, Waltham Mass.) and heated at 90° C. for 10 minutes. The samples were allowed to cool and were either used immediately or stored at 4° C. for future analysis. The samples were analyzed using 10% Bis-Tris gels and then transferred to nitrocellulose membranes per the manufacturer's directions. […]

`C[C@@H]1CCN(C(=O)CC#N)C[C@@H]1N(C)c1ncnc2[nH]ccc12` [Tofacitinib, tofacitinib] was tested, and the “effect on IFN- and IFNs and IL4-PE-mediated cell death / IFN signaling” value (OVCAR-5 cells) was “dose-dependent blocking of IFN signaling” and the “effect on IFN signaling / IFN-mediated killing” value (A2780 cells) was “blocked”.

With “IFNγ: IFN-γ purchased from INTERMUNE Pharmaceutical Inc.” the STAT1 phosphorylation (STAT1) was “induced”.

B1: IFNα: human IFN-α2a, gift of Hoffmann LaRoche (protein)
chain: MARPFAFLMVLVVISYWSTCSLGCDLPQTHNLRNKKILTLLAQMRRLSPLSCLKDRKDFGFPQEKVDAQQIQEAQAIPVLSELTQQILTLFTSKDSSAAWNATLLDSFCTGLHQLLNDLQGCLMQLVGMKELPLTQEDSQLAMKKYFHRITVYLREKKHSPCAWEVVRAEVWRALSSSVNLLARLSEEKE
modifications: Mouse
notes: human IFN-α2a, gift of Hoffmann LaRoche
For B1, the STAT1 phosphorylation (STAT1) was “induced”.
